Measured values reported in PubChem BioAssay AID1963429 (Molecular Pharmacology Branch, DTP, NCI, 2024).
Each block holds one molecule with its values, some of them ahead of it.

Tested on: 126254-015-R-J1-PDC complex spheroid growth, % test/control
Assay: Anticancer human tumor 126254-015-R-J1-PDC patient-derived soft tissue sarcoma cell line growth inhibition [Asc]
Conditions: for IC50: curve of first compound; for viability, T/C: stronger effect = lower value
In short: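 Concentration series start at each agent's clinical Cmax, or at 10 microM when none is established, and drop in half-log steps; agents are applied alone or together to complex spheroids built with HUVEC and hMSC.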

[1] = second compound 0.1 µM, first compound 0.00949 µM
[2] = second compound 0.1 µM, first compound 0.03 µM
[3] = second compound 0.1 µM, first compound 0.0949 µM
[4] = second compound 0.1 µM, first compound 0.3 µM
[5] = second compound 0.316 µM, first compound 0.00949 µM
[6] = second compound 0.316 µM, first compound 0.03 µM
[7] = second compound 0.316 µM, first compound 0.0949 µM
[8] = second compound 0.316 µM, first compound 0.3 µM
[9] = second compound 1 µM, first compound 0.00949 µM
[10] = second compound 1 µM, first compound 0.03 µM
[11] = second compound 1 µM, first compound 0.0949 µM
[12] = second compound 1 µM, first compound 0.3 µM
[13] = second compound 0.1 µM, first compound 0.0316 µM
[14] = second compound 0.1 µM, first compound 0.1 µM
[15] = second compound 0.1 µM, first compound 0.316 µM
[16] = second compound 0.1 µM, first compound 1 µM
[17] = second compound 0.316 µM, first compound 0.0316 µM
[18] = second compound 0.316 µM, first compound 0.1 µM
[19] = second compound 0.316 µM, first compound 0.316 µM
[20] = second compound 0.316 µM, first compound 1 µM
[21] = second compound 1 µM, first compound 0.0316 µM
[22] = second compound 1 µM, first compound 0.1 µM
[23] = second compound 1 µM, first compound 0.316 µM
[24] = second compound 1 µM, first compound 1 µM
[25] = second compound 3.16 µM, first compound 0.0316 µM
[26] = second compound 3.16 µM, first compound 0.1 µM
[27] = second compound 3.16 µM, first compound 0.316 µM
[28] = second compound 3.16 µM, first compound 1 µM
[29] = second compound 10 µM, first compound 0.0316 µM
[30] = second compound 10 µM, first compound 0.1 µM
[31] = second compound 10 µM, first compound 0.316 µM
[32] = second compound 10 µM, first compound 1 µM
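Also: spheroids exposed to compound for seven days.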
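For viability, T/C in this document: 100% = DMSO vehicle control wells.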

IC50 (second compound 0.01 µM): 61 nM | IC50 (second compound 0.0316 µM): 24.4 nM | IC50 (second compound 0.1 µM): 24.3 nM | IC50 (second compound 0.316 µM): 16.8 nM | IC50 (second compound 1 µM): 10.5 nM
Compound: NC(=O)C(=Cn1cnc(-c2cc(C(F)(F)F)cc(C(F)(F)F)c2)n1)c1cncnc1 + CNC(C)C(=O)NC1CN(S(=O)(=O)c2cccc(S(=O)(=O)N3CCC4CCC(C(=O)NC(c5ccccc5)c5ccccc5)N4C(=O)C(NC(=O)C(C)NC)C3)c2)CCC2CCC(C(=O)NC(c3ccccc3)c3ccccc3)N2C1=O
viability, T/C (second compound 0.01 µM, first compound 0.000949 µM): 85.8% | viability, T/C (second compound 0.01 µM, first compound 0.003 µM): 87.5% | viability, T/C (second compound 0.01 µM, first compound 0.00949 µM): 73% | viability, T/C (second compound 0.01 µM, first compound 0.03 µM): 64.7% | viability, T/C (second compound 0.01 µM, first compound 0.0949 µM): 41.6% | viability, T/C (second compound 0.01 µM, first compound 0.3 µM): 9.66% | viability, T/C (second compound 0.0316 µM, first compound 0.000949 µM): 80.4% | viability, T/C (second compound 0.0316 µM, first compound 0.003 µM): 77.7% | viability, T/C (second compound 0.0316 µM, first compound 0.00949 µM): 62.7% | viability, T/C (second compound 0.0316 µM, first compound 0.03 µM): 47.7% | viability, T/C (second compound 0.0316 µM, first compound 0.0949 µM): 25.9% | viability, T/C (second compound 0.0316 µM, first compound 0.3 µM): 9% | viability, T/C (second compound 0.1 µM, first compound 0.000949 µM): 58.2% | viability, T/C (second compound 0.1 µM, first compound 0.003 µM): 62.7% | viability, T/C [1]: 55.9% | viability, T/C [2]: 48.9% | viability, T/C [3]: 23% | viability, T/C [4]: 5.96% | viability, T/C (second compound 0.316 µM, first compound 0.000949 µM): 60% | viability, T/C (second compound 0.316 µM, first compound 0.003 µM): 60.8% | viability, T/C [5]: 54.7% | viability, T/C [6]: 44% | viability, T/C [7]: 15.1% | viability, T/C [8]: 3.45% | viability, T/C (second compound 1 µM, first compound 0.000949 µM): 51.9% | viability, T/C (second compound 1 µM, first compound 0.003 µM): 57.5% | viability, T/C [9]: 53.4% | viability, T/C [10]: 35.8% | viability, T/C [11]: 18.8% | viability, T/C [12]: 5.88%

IC50 (second compound 0.1 µM): > 1000 nM | IC50 (second compound 0.316 µM): 90.5 nM | IC50 (second compound 1 µM): 107 nM | IC50 (second compound 3.16 µM): 74.8 nM | IC50 (second compound 10 µM): 59.8 nM
Compound: CNC(C)C(=O)NC1CN(S(=O)(=O)c2cccc(S(=O)(=O)N3CCC4CCC(C(=O)NC(c5ccccc5)c5ccccc5)N4C(=O)C(NC(=O)C(C)NC)C3)c2)CCC2CCC(C(=O)NC(c3ccccc3)c3ccccc3)N2C1=O (stereo not given) + Cc1c(S(C)(=O)=O)c(-c2cc(F)cc(N3CCN(c4ccc(NS(=O)(=O)c5ccc(NC(CCN6CCC(C(=O)OCCCP(=O)(O)O)CC6)CSc6ccccc6)c(S(=O)(=O)C(F)(F)F)c5)cc4)CC3)c2)c(-c2ccc(Cl)cc2)n1C(C)C
viability, T/C (second compound 0.1 µM, first compound 0.00316 µM): 83% | viability, T/C (second compound 0.1 µM, first compound 0.01 µM): 84.8% | viability, T/C [13]: 67.3% | viability, T/C [14]: 55.6% | viability, T/C [15]: 56.2% | viability, T/C [16]: 45% | viability, T/C (second compound 0.316 µM, first compound 0.00316 µM): 85.8% | viability, T/C (second compound 0.316 µM, first compound 0.01 µM): 81.9% | viability, T/C [17]: 63.1% | viability, T/C [18]: 47.3% | viability, T/C [19]: 49.7% | viability, T/C [20]: 36.5% | viability, T/C (second compound 1 µM, first compound 0.00316 µM): 87.5% | viability, T/C (second compound 1 µM, first compound 0.01 µM): 81.5% | viability, T/C [21]: 66.9% | viability, T/C [22]: 47.9% | viability, T/C [23]: 46.9% | viability, T/C [24]: 36.3% | viability, T/C (second compound 3.16 µM, first compound 0.00316 µM): 90.7% | viability, T/C (second compound 3.16 µM, first compound 0.01 µM): 79% | viability, T/C [25]: 60.7% | viability, T/C [26]: 46.1% | viability, T/C [27]: 38.1% | viability, T/C [28]: 32.6% | viability, T/C (second compound 10 µM, first compound 0.00316 µM): 80.2% | viability, T/C (second compound 10 µM, first compound 0.01 µM): 78.6% | viability, T/C [29]: 64.3% | viability, T/C [30]: 38.2% | viability, T/C [31]: 30.6% | viability, T/C [32]: 27.8%

IC50 (second compound 0.1 µM): > 3000 nM | IC50 (second compound 0.316 µM): > 3000 nM | IC50 (second compound 1 µM): > 3000 nM | IC50 (second compound 3.16 µM): > 3000 nM | IC50 (second compound 10 µM): > 3000 nM
Compound: CCN1C(C(=O)NC23CCC(C(=O)O)(CC2)CC3)C(c2cccc(Cl)c2F)C2(C(=O)Nc3cc(Cl)ccc32)C12CCCCC2 (stereo not given) + Cc1c(S(C)(=O)=O)c(-c2cc(F)cc(N3CCN(c4ccc(NS(=O)(=O)c5ccc(NC(CCN6CCC(C(=O)OCCCP(=O)(O)O)CC6)CSc6ccccc6)c(S(=O)(=O)C(F)(F)F)c5)cc4)CC3)c2)c(-c2ccc(Cl)cc2)n1C(C)C
viability, T/C [1]: 90.7% | viability, T/C [2]: 85.1% | viability, T/C [3]: 91.7% | viability, T/C [4]: 88.6% | viability, T/C (second compound 0.1 µM, first compound 0.949 µM): 93.9% | viability, T/C (second compound 0.1 µM, first compound 3 µM): 88.3% | viability, T/C [5]: 83.3% | viability, T/C [6]: 82.4% | viability, T/C [7]: 81.9% | viability, T/C [8]: 79.7% | viability, T/C (second compound 0.316 µM, first compound 0.949 µM): 74.9% | viability, T/C (second compound 0.316 µM, first compound 3 µM): 76.9% | viability, T/C [9]: 86.1% | viability, T/C [10]: 84.4% | viability, T/C [11]: 87.1% | viability, T/C [12]: 79.4% | viability, T/C (second compound 1 µM, first compound 0.949 µM): 82.7% | viability, T/C (second compound 1 µM, first compound 3 µM): 71.4% | viability, T/C (second compound 3.16 µM, first compound 0.00949 µM): 76% | viability, T/C (second compound 3.16 µM, first compound 0.03 µM): 83.8% | viability, T/C (second compound 3.16 µM, first compound 0.0949 µM): 77.2% | viability, T/C (second compound 3.16 µM, first compound 0.3 µM): 78.7% | viability, T/C (second compound 3.16 µM, first compound 0.949 µM): 81.3% | viability, T/C (second compound 3.16 µM, first compound 3 µM): 70.5% | viability, T/C (second compound 10 µM, first compound 0.00949 µM): 82.3% | viability, T/C (second compound 10 µM, first compound 0.03 µM): 86.5% | viability, T/C (second compound 10 µM, first compound 0.0949 µM): 88.8% | viability, T/C (second compound 10 µM, first compound 0.3 µM): 82.5% | viability, T/C (second compound 10 µM, first compound 0.949 µM): 75.5% | viability, T/C (second compound 10 µM, first compound 3 µM): 72.2%

IC50 (second compound 0.1 µM): 1860 nM | IC50 (second compound 0.316 µM): 1390 nM | IC50 (second compound 1 µM): 1360 nM | IC50 (second compound 3.16 µM): 772 nM | IC50 (second compound 10 µM): 1390 nM
Compound: C=C(F)C(=O)N1CCN(c2nc(OCC3CCCN3C)nc3c2CCN(c2cccc4cccc(Cl)c24)C3)CC1CC#N (stereo not given) + Cc1c(S(C)(=O)=O)c(-c2cc(F)cc(N3CCN(c4ccc(NS(=O)(=O)c5ccc(NC(CCN6CCC(C(=O)OCCCP(=O)(O)O)CC6)CSc6ccccc6)c(S(=O)(=O)C(F)(F)F)c5)cc4)CC3)c2)c(-c2ccc(Cl)cc2)n1C(C)C
viability, T/C [13]: 87.2% | viability, T/C [14]: 97.2% | viability, T/C [15]: 89.6% | viability, T/C [16]: 76.5% | viability, T/C (second compound 0.1 µM, first compound 3.16 µM): 27.4% | viability, T/C (second compound 0.1 µM, first compound 10 µM): 0.18% | viability, T/C [17]: 83% | viability, T/C [18]: 91.2% | viability, T/C [19]: 80.2% | viability, T/C [20]: 61% | viability, T/C (second compound 0.316 µM, first compound 3.16 µM): 22.8% | viability, T/C (second compound 0.316 µM, first compound 10 µM): 0.13% | viability, T/C [21]: 83.5% | viability, T/C [22]: 66.3% | viability, T/C [23]: 76.3% | viability, T/C [24]: 57.7% | viability, T/C (second compound 1 µM, first compound 3.16 µM): 27.2% | viability, T/C (second compound 1 µM, first compound 10 µM): 0.14% | viability, T/C [25]: 88.3% | viability, T/C [26]: 75% | viability, T/C [27]: 61.5% | viability, T/C [28]: 51.7% | viability, T/C (second compound 3.16 µM, first compound 3.16 µM): 20.5% | viability, T/C (second compound 3.16 µM, first compound 10 µM): 0.13% | viability, T/C [29]: 79.2% | viability, T/C [30]: 77.5% | viability, T/C [31]: 77.8% | viability, T/C [32]: 62.4% | viability, T/C (second compound 10 µM, first compound 3.16 µM): 18.5% | viability, T/C (second compound 10 µM, first compound 10 µM): 0.2%
